System: 991263-137-R1-J2-PDC complex spheroid viability
Test: Anticancer human tumor 991263-137-R1-J2-PDC patient-derived colon adenocarcinoma cell line growth inhibition [POLQ]
Settings: for IC50: curve of first compound; for viability, T/C: stronger effect = lower value
Method in brief: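 Complex spheroid viability model combining PDC tumour cells with endothelial (HUVEC) and MSC stromal cells. Novobiocin, ART-558 or RP6685 were tested singly and in combination with standard and investigational anticancer drugs. Each was titrated in half-log steps from near clinical Cmax, or from 10 microM where Cmax was unknown.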

[1] = second compound 0.0316 µM, first compound 0.0316 µM
[2] = second compound 0.0316 µM, first compound 0.1 µM
[3] = second compound 0.0316 µM, first compound 0.316 µM
[4] = second compound 0.0316 µM, first compound 1 µM
[5] = second compound 0.0316 µM, first compound 3.16 µM
[6] = second compound 0.0316 µM, first compound 10 µM
[7] = second compound 0.1 µM, first compound 0.0316 µM
[8] = second compound 0.1 µM, first compound 0.1 µM
[9] = second compound 0.1 µM, first compound 0.316 µM
[10] = second compound 0.1 µM, first compound 1 µM
[11] = second compound 0.1 µM, first compound 3.16 µM
[12] = second compound 0.1 µM, first compound 10 µM
[13] = second compound 0.316 µM, first compound 0.0316 µM
[14] = second compound 0.316 µM, first compound 0.1 µM
[15] = second compound 0.316 µM, first compound 0.316 µM
[16] = second compound 0.316 µM, first compound 1 µM
[17] = second compound 0.316 µM, first compound 3.16 µM
[18] = second compound 0.316 µM, first compound 10 µM
[19] = second compound 1 µM, first compound 0.0316 µM
[20] = second compound 1 µM, first compound 0.1 µM
[21] = second compound 1 µM, first compound 0.316 µM
[22] = second compound 1 µM, first compound 1 µM
[23] = second compound 1 µM, first compound 3.16 µM
[24] = second compound 1 µM, first compound 10 µM
[25] = second compound 3.16 µM, first compound 0.0316 µM
[26] = second compound 3.16 µM, first compound 0.1 µM
[27] = second compound 3.16 µM, first compound 0.316 µM
[28] = second compound 3.16 µM, first compound 1 µM
[29] = second compound 3.16 µM, first compound 3.16 µM
[30] = second compound 3.16 µM, first compound 10 µM
[31] = second compound 10 µM, first compound 0.0316 µM
[32] = second compound 10 µM, first compound 0.1 µM
[33] = second compound 10 µM, first compound 0.316 µM
[34] = second compound 10 µM, first compound 1 µM
[35] = second compound 10 µM, first compound 3.16 µM
[36] = second compound 10 µM, first compound 10 µM
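Also: spheroids exposed to compounds for 7 days before readout.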
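For viability, T/C in this document: 100% = DMSO vehicle control viability.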

SMILES: CCc1cc2c(N3CCc4c(cc(Cn5ccnc5)cc4-c4cn(C)nc4C(F)(F)F)C3=O)ccnc2c(OC)n1 + Nc1ccc(C#CCN(C(=O)Cc2ncc(C(F)(F)F)cc2C(F)(F)F)c2ccc(F)cc2)nn1
- IC50 (second compound 0.0316 µM): > 10 µM
- IC50 (second compound 0.1 µM): > 10 µM
- IC50 (second compound 0.316 µM): > 10 µM
- IC50 (second compound 1 µM): > 10 µM
- IC50 (second compound 3.16 µM): > 10 µM
- IC50 (second compound 10 µM): > 10 µM
- viability, T/C [1]: 118%
- viability, T/C [2]: 109%
- viability, T/C [3]: 101%
- viability, T/C [4]: 92.2%
- viability, T/C [5]: 91.5%
- viability, T/C [6]: 88.7%
- viability, T/C [7]: 97.1%
- viability, T/C [8]: 103%
- viability, T/C [9]: 108%
- viability, T/C [10]: 101%
- viability, T/C [11]: 96%
- viability, T/C [12]: 90.2%
- viability, T/C [13]: 107%
- viability, T/C [14]: 99.8%
- viability, T/C [15]: 106%
- viability, T/C [16]: 111%
- viability, T/C [17]: 103%
- viability, T/C [18]: 79.3%
- viability, T/C [19]: 95.1%
- viability, T/C [20]: 107%
- viability, T/C [21]: 108%
- viability, T/C [22]: 91.9%
- viability, T/C [23]: 97.4%
- viability, T/C [24]: 95.7%
- viability, T/C [25]: 116%
- viability, T/C [26]: 112%
- viability, T/C [27]: 87%
- viability, T/C [28]: 101%
- viability, T/C [29]: 95.3%
- viability, T/C [30]: 89.6%
- viability, T/C [31]: 95.1%
- viability, T/C [32]: 102%
- viability, T/C [33]: 107%
- viability, T/C [34]: 89.8%
- viability, T/C [35]: 86.4%
- viability, T/C [36]: 82.9%

SMILES: COc1cc2cc(C(=O)CCC(=O)O)sc2cc1OC + Nc1ccc(C#CCN(C(=O)Cc2ncc(C(F)(F)F)cc2C(F)(F)F)c2ccc(F)cc2)nn1
- IC50 (second compound 0.0316 µM): > 10 µM
- IC50 (second compound 0.1 µM): > 10 µM
- IC50 (second compound 0.316 µM): > 10 µM
- IC50 (second compound 1 µM): > 10 µM
- IC50 (second compound 3.16 µM): > 10 µM
- IC50 (second compound 10 µM): > 10 µM
- viability, T/C [1]: 115%
- viability, T/C [2]: 108%
- viability, T/C [3]: 111%
- viability, T/C [4]: 116%
- viability, T/C [5]: 87.9%
- viability, T/C [6]: 84.8%
- viability, T/C [7]: 116%
- viability, T/C [8]: 115%
- viability, T/C [9]: 95.8%
- viability, T/C [10]: 98.7%
- viability, T/C [11]: 113%
- viability, T/C [12]: 93.8%
- viability, T/C [13]: 97.1%
- viability, T/C [14]: 105%
- viability, T/C [15]: 102%
- viability, T/C [16]: 104%
- viability, T/C [17]: 95%
- viability, T/C [18]: 77.5%
- viability, T/C [19]: 107%
- viability, T/C [20]: 103%
- viability, T/C [21]: 108%
- viability, T/C [22]: 96.8%
- viability, T/C [23]: 104%
- viability, T/C [24]: 86.6%
- viability, T/C [25]: 106%
- viability, T/C [26]: 99.6%
- viability, T/C [27]: 105%
- viability, T/C [28]: 103%
- viability, T/C [29]: 105%
- viability, T/C [30]: 88.2%
- viability, T/C [31]: 101%
- viability, T/C [32]: 96.6%
- viability, T/C [33]: 112%
- viability, T/C [34]: 94.7%
- viability, T/C [35]: 107%
- viability, T/C [36]: 82.1%
